Assay in all cases: BIO3-BIO1 mutant enzyme activity in the presence of herbicide, percentage inhibition (fluorometric DAPA assay)
What all share (type): biochemical
Common to all, as to details: read-out: percentage inhibition

Assay [1] has as its target T1, Arabidopsis thaliana BIO3-BIO1 (BioDA) mutants (Arabidopsis thaliana, UniProt B0F481, A609N).
T1 construct: with the predicted N-terminal mitochondrial transit peptide removed; 6xHis-tag (N); thrombin cleavage site (N); made in house; host or cells: E. coli BL21 (DE3) bioA
A digest of the protocol:
(§1)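 Percentage inhibition compares activity at one of three herbicide concentrations against DMSO, from o-phthalaldehyde-derivatised DAPA fluorescence (ex 410, em 470 nm). Purified N-His BIO3-BIO1 variants (50 nM, E. coli-expressed) saw herbicide 10 min at 20 °C in pH 8.6 EPPS buffer, then 20 μM KAPA plus 100 μM spermidine for 75 min at 20 °C.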

Assay [2] addresses T2, Arabidopsis thaliana BIO3-BIO1 (BioDA) mutants (Arabidopsis thaliana, UniProt B0F481, F348V).
T2 construct: with the predicted N-terminal mitochondrial transit peptide removed; 6xHis-tag (N); thrombin cleavage site (N); made in house; host or cells: E. coli BL21 (DE3) bioA
A digest of the protocol: as §1

Assay [3] concerns the target T3, Arabidopsis thaliana BIO3-BIO1 (BioDA) mutants (Arabidopsis thaliana, UniProt B0F481, M419I).
T3 construct: with the predicted N-terminal mitochondrial transit peptide removed; 6xHis-tag (N); thrombin cleavage site (N); made in house; host or cells: E. coli BL21 (DE3) bioA
An outline of the steps: as §1

The target in assay [4] is T4, Arabidopsis thaliana BIO3-BIO1 (BioDA) mutants (Arabidopsis thaliana, UniProt B0F481, P510C).
T4 construct: with the predicted N-terminal mitochondrial transit peptide removed; 6xHis-tag (N); thrombin cleavage site (N); made in house; host or cells: E. coli BL21 (DE3) bioA
T4 sequence (B0F481 23-833 P510C): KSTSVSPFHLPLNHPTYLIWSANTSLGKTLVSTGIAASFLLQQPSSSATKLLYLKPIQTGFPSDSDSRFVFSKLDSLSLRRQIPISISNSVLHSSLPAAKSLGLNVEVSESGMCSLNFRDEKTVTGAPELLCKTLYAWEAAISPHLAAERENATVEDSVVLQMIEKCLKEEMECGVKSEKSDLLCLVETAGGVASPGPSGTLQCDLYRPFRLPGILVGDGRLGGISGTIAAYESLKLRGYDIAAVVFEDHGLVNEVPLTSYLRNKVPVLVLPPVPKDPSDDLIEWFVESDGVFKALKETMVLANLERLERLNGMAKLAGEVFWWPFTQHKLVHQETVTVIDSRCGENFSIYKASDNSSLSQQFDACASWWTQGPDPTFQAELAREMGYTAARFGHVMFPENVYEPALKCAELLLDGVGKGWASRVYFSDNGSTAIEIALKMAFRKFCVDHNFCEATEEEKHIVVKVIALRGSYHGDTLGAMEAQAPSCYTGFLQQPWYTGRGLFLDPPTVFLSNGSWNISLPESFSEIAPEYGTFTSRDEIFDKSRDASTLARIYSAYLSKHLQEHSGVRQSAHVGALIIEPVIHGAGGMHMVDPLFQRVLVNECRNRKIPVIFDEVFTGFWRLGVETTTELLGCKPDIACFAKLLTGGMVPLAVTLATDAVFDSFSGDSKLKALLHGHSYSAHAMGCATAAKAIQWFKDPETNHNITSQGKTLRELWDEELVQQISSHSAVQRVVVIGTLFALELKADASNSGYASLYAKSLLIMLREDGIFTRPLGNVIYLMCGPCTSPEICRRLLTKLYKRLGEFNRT
An outline of the steps:
as §1

The target in assay [5] is T5, Arabidopsis thaliana BIO3-BIO1 (BioDA) mutants (Arabidopsis thaliana, UniProt B0F481, R756K).
T5 construct: with the predicted N-terminal mitochondrial transit peptide removed; 6xHis-tag (N); thrombin cleavage site (N); made in house; host or cells: E. coli BL21 (DE3) bioA
T5 sequence (B0F481 23-833 R756K): as the sequence (B0F481 23-833 P510C) above, with C488P, R734K counted along it
A digest of the protocol:
as §1

The target of assay [6] is T6, Arabidopsis thaliana BIO3-BIO1 (BioDA) mutants (Arabidopsis thaliana, UniProt B0F481, R797Q).
T6 construct: with the predicted N-terminal mitochondrial transit peptide removed; 6xHis-tag (N); thrombin cleavage site (N); made in house; host or cells: E. coli BL21 (DE3) bioA
T6 sequence (B0F481 23-833 R797Q): as the sequence (B0F481 23-833 P510C) above, with C488P, R775Q counted along it
A digest of the protocol:
as §1

The target of assay [7] is T7, Arabidopsis thaliana BIO3-BIO1 (BioDA) mutants (Arabidopsis thaliana, UniProt B0F481, S509D).
T7 construct: with the predicted N-terminal mitochondrial transit peptide removed; 6xHis-tag (N); thrombin cleavage site (N); made in house; host or cells: E. coli BL21 (DE3) bioA
T7 sequence (B0F481 23-833 S509D): as the sequence (B0F481 23-833 P510C) above, with S487D, C488P counted along it
An outline of the steps: as §1

The target in assay [8] is T8, Arabidopsis thaliana BIO3-BIO1 (BioDA) mutants (Arabidopsis thaliana, UniProt B0F481, S509F).
T8 construct: with the predicted N-terminal mitochondrial transit peptide removed; 6xHis-tag (N); thrombin cleavage site (N); made in house; host or cells: E. coli BL21 (DE3) bioA
T8 sequence (B0F481 23-833 S509F): as the sequence (B0F481 23-833 P510C) above, with S487F, C488P counted along it
An outline of the steps:
as §1

Assay [9] concerns the target T9, Arabidopsis thaliana BIO3-BIO1 (BioDA) mutants (Arabidopsis thaliana, UniProt B0F481, S509Y).
T9 construct: with the predicted N-terminal mitochondrial transit peptide removed; 6xHis-tag (N); thrombin cleavage site (N); made in house; host or cells: E. coli BL21 (DE3) bioA
A digest of the protocol: as §1

Assay [10] deals with T10, Arabidopsis thaliana BIO3-BIO1 (BioDA) mutants (Arabidopsis thaliana, UniProt B0F481, V354E).
T10 construct: with the predicted N-terminal mitochondrial transit peptide removed; 6xHis-tag (N); thrombin cleavage site (N); made in house; host or cells: E. coli BL21 (DE3) bioA
T10 sequence (B0F481 23-833 V354E): as the sequence (B0F481 23-833 P510C) above, with V332E, C488P counted along it
A digest of the protocol:
as §1

Assay [11] concerns the target T11, Arabidopsis thaliana BIO3-BIO1 (BioDA) mutants (Arabidopsis thaliana, UniProt B0F481, V354L).
T11 construct: with the predicted N-terminal mitochondrial transit peptide removed; 6xHis-tag (N); thrombin cleavage site (N); made in house; host or cells: E. coli BL21 (DE3) bioA
A digest of the protocol: as §1

In assay [12] the target is T12, Arabidopsis thaliana BIO3-BIO1 (BioDA) mutants (Arabidopsis thaliana, UniProt B0F481, Y511V).
T12 construct: with the predicted N-terminal mitochondrial transit peptide removed; 6xHis-tag (N); thrombin cleavage site (N); made in house; host or cells: E. coli BL21 (DE3) bioA
T12 sequence (B0F481 23-833 Y511V): as the sequence (B0F481 23-833 P510C) above, with C488P, Y489V counted along it
An outline of the steps: as §1

T3 sequence (B0F481 23-833 M419I): as the sequence (B0F481 23-833 P510C) above, with M397I, C488P counted along it
T1 sequence (B0F481 23-833 A609N): as the sequence (B0F481 23-833 P510C) above, with C488P, A587N counted along it
T11 sequence (B0F481 23-833 V354L): as the sequence (B0F481 23-833 P510C) above, with V332L, C488P counted along it
T9 sequence (B0F481 23-833 S509Y): as the sequence (B0F481 23-833 P510C) above, with S487Y, C488P counted along it
T2 sequence (B0F481 23-833 F348V): as the sequence (B0F481 23-833 P510C) above, with F326V, C488P counted along it

`CCn1c(C)c(-c2ccc(F)cc2F)c(=O)c(C(=O)O)c1-c1ccc(Cl)c(Cl)c1` [Compound C, 2-(3,4-dichlorophenyl)-5-(2,4-difluorophenyl)-1-ethyl-6-methyl-4-oxo-pyridine-3-carboxylic acid]: the inhibition (as a rule, the change of the read-out against control, counted positive when it falls) at 0.2 µM worked out at 45% in [1]; 0% in [2]; 1% in [3]; 13% in assay [4]; 6% in [5]; 7% in [6]. For the same compound, the inhibition at 0.2 µM turned out to be 59% in [7]; 24% in assay [8]; 37% in [9]; 0% in assay [10]; 0% in assay [11]; 28% in assay [12]. The inhibition at 1 µM amounted to 36% in assay [1]; 0% in [2]; 7% in [3]; 53% in assay [4]; 42% in assay [5]; 32% in [6]. The inhibition at 1 µM in assay [7] amounted to 91%; in assay [8] it was 82%; in assay [9], 76%; in [10], 0%; in assay [11], 32%; in [12], 94%. For the same compound, the inhibition at 5 µM in assay [1] was 53%; in assay [2] it was 1%; in assay [3], 53%; in assay [4] it was 78%; in [5], 80%; in [6], 52%. Further, the inhibition at 5 µM in assay [7] is 103%; in [8], 98%; in assay [9], 95%; in assay [10], 39%; in assay [11], 86%; in [12], 97%.

For the compound `CCn1c(Cn2ccc(C(F)(F)F)n2)cc(=O)c(C(=O)O)c1-c1ccc(Cl)c(Cl)c1` [Compound L, 2-(3,4-dichlorophenyl)-1-ethyl-4-oxo-6-[[3-(trifluoromethyl)pyrazol-1-yl]methyl]pyridine-3-carboxylic acid], the inhibition at 0.01 µM in [1] worked out at 83%; in [2], 10%; in assay [3] it was 6%; in assay [4], 0%. The inhibition at 0.075 µM in assay [1] was found to be 83%; in [2], 15%; in assay [3], 1%; in [4] it was 38%. The inhibition at 0.5 µM in assay [1] was determined as 85%; in assay [2], 11%; in assay [3], 30%; in assay [4] it was 77%.

Take `CCOC(=O)c1nn(-c2ccc3c(c2)OC(F)(F)C(F)(F)O3)c2cccc(C(C)=O)c2c1=O` [Compound A, ethyl 5-acetyl-4-oxo-1-(2,2,3,3-tetrafluoro-1,4-benzodioxin-6-yl)cinnoline-3-carboxylate]: the inhibition at 1 µM in assay [1] came to 78%; in assay [2] it was 4%; in assay [3] it was 7%; in assay [4], 20%; in assay [5], 33%; in assay [6], 35%. For the same compound, the inhibition at 1 µM in assay [7] is 9%; in assay [8] it was 6%; in [9], 3%; in assay [10], 25%; in [11], 1%; in assay [12] it was 45%.

`CCn1c(-c2ccc(Cl)c(Cl)c2)c(C(=O)O)c(=O)c2cc(F)ccc21` [Compound M, 2-(3,4-dichlorophenyl)-1-ethyl-6-fluoro-4-oxo-quinoline-3-carboxylic acid]: the inhibition at 0.2 µM in [1] came out at 44%; in assay [2], 0%; in assay [3], 2%; in assay [4] it was 9%; in assay [5], 10%; in [6], 0%. The inhibition at 0.2 µM worked out at 48% in assay [7]; 19% in assay [8]; 28% in [9]; 0% in [10]; 4% in assay [11]; 33% in assay [12]. Further, the inhibition at 1 µM in assay [1] was found to be 49%; in assay [2], 0%; in [3], 21%; in assay [4], 36%; in assay [5], 36%; in [6] it was 5%. Moreover, the inhibition at 1 µM in [7] amounted to 80%; in assay [8], 58%; in [9] it was 58%; in [10] it was 0%; in assay [11] it was 43%; in assay [12] it was 88%. Besides, the inhibition at 5 µM was found to be 62% in assay [1]; 0% in assay [2]; 20% in assay [3]; 69% in [4]; 71% in [5]; 30% in [6]. The inhibition at 5 µM is 98% in assay [7]; 89% in [8]; 85% in [9]; 23% in [10]; 78% in assay [11]; 99% in [12].

These data come from patent publication US20260226493A1, “HERBICIDE RESISTANT PLANTS” (SYNGENTA CROP PROTECTION AG, priority 2023, published 2026).
